Assay results taken from the supplement of paper PMC4862054.

Legend:
Settings in all cases: incubation time: 72 h
[1] = system: MFM-223; experiment: normalised response (% of control), CellTiter-Glo; higher = more viable cells (100 = DMSO, 0 = benzethonium chloride kill control)
Summary of the method: (§1)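 Breast cancer cell lines in 20 µl suspension were added to 384-well plates containing compound at 5 concentrations, spaced in 10-fold steps across a 10,000-fold range chosen for each compound, and incubated for 72 h. CellTox Green fluorescence was read at 485/520 nm, followed by CellTiter-Glo luminescence after 10 min at room temperature. Signals on each plate were normalised so that 0.1 % DMSO equals 100 and a positive kill control equals 0. Every value in the table is the normalised signal at one concentration of the series.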

[2] = system: HCC1143; experiment: as above
Summary of the method: as §1

[3] = system: MDA-MB-468; experiment: as above
Summary of the method: as §1

[4] = system: MDA-MB-453; experiment: as above
Summary of the method: as §1

[5] = system: CAL-85-1; experiment: as above
Summary of the method: as §1

[6] = system: BT-549; experiment: as above
Summary of the method: as §1

[7] = system: DU-4475; experiment: as above
Summary of the method: as §1

[8] = system: MCF-10A; experiment: as above
Summary of the method: as §1

[9] = system: MDA-MB-231; experiment: as above
Summary of the method: as §1

[10] = system: BT-474; experiment: as above
Summary of the method: as §1

[11] = system: HCC1599; experiment: as above
Summary of the method: as §1

[12] = system: HDQ-P1; experiment: as above
Summary of the method: as §1

[13] = system: CAL-120; experiment: as above
Summary of the method: as §1

[14] = system: MDA-MB-436; experiment: as above
Summary of the method: as §1

[15] = system: CAL-148; experiment: as above
Summary of the method: as §1

[16] = system: HCC1937; experiment: as above
Summary of the method: as §1

[17] = system: SK-BR-3; experiment: as above
Summary of the method: as §1

[18] = system: CAL-51; experiment: as above
Summary of the method: as §1

[19] = system: Hs578T; experiment: as above
Summary of the method: as §1

[20] = system: MFM-223; experiment: normalised response (% of control), CellTox Green; higher = less cell death (100 = DMSO, 0 = benzethonium chloride kill control)
Summary of the method: as §1

[21] = system: HCC1143; experiment: as above
Summary of the method: as §1

[22] = system: MDA-MB-468; experiment: as above
Summary of the method: as §1

[23] = system: MDA-MB-453; experiment: as above
Summary of the method: as §1

[24] = system: CAL-85-1; experiment: as above
Summary of the method: as §1

[25] = system: BT-549; experiment: as above
Summary of the method: as §1

[26] = system: DU-4475; experiment: as above
Summary of the method: as §1

[27] = system: MCF-10A; experiment: as above
Summary of the method: as §1

[28] = system: MDA-MB-231; experiment: as above
Summary of the method: as §1

[29] = system: BT-474; experiment: as above
Summary of the method: as §1

[30] = system: HCC1599; experiment: as above
Summary of the method: as §1

[31] = system: HDQ-P1; experiment: as above
Summary of the method: as §1

[32] = system: CAL-120; experiment: as above
Summary of the method: as §1

[33] = system: MDA-MB-436; experiment: as above
Summary of the method: as §1

[34] = system: CAL-148; experiment: as above
Summary of the method: as §1

[35] = system: HCC1937; experiment: as above
Summary of the method: as §1

[36] = system: CAL-51; experiment: as above
Summary of the method: as §1

[37] = system: Hs578T; experiment: as above
Summary of the method: as §1

Row | Compound | normalised response [1] | normalised response [2] | normalised response [3] | normalised response [4] | normalised response [5] | normalised response [6] | normalised response [7] | normalised response [8] | normalised response [9] | normalised response [10] | normalised response [11] | normalised response [12] | normalised response [13] | normalised response [14] | normalised response [15] | normalised response [16] | normalised response [17] | normalised response [18] | normalised response [19] | normalised response [20] | normalised response [21] | normalised response [22] | normalised response [23] | normalised response [24] | normalised response [25] | normalised response [26] | normalised response [27] | normalised response [28] | normalised response [29] | normalised response [30] | normalised response [31] | normalised response [32] | normalised response [33] | normalised response [34] | normalised response [35] | normalised response [36] | normalised response [37]
1 | Cc1cc(Nc2cc(CN3CCOCC3)c3nc(C)c(Cc4ccc(Cl)cc4F)n3n2)n[nH]1 [Gandotinib] (1000 nM) | 69.7% | 88.6% | 53.1% | 107% | 78.1% | 77% | 99.9% | 96.6% | 70.7% | 75.8% | 124% | 90% | 90.4% | 86.4% | 96.7% | 96.7% | 82.4% | 55% | 86.7% | 33% | 97% | 99.5% | 107% | 78.5% | 119% | 102% | 90.8% | 101% | 104% | 104% | 105% | 97.4% | 66.1% | 104% | 101% | 71.4% | 101%
2 | COc1cc2c(NC3CCN(C(C)C)CC3)nc(N3CCC(F)(F)CC3)nc2cc1OCCCN1CCCC1 [UNC0642] (1000 nM) | 91.2% | 91.2% | 85.9% | 94.6% | 93.2% | 92.4% | 98.7% | 84.6% | 95.4% | 109% | 93.1% | 99.7% | 89% | 90.9% | 89.1% | 94% | 96.4% | 108% | 100% | 88.9% | 102% | 146% | 102% | 97.7% | 86.2% | 96.4% | 90.6% | 92.8% | 97.4% | 97.6% | 104% | 96.9% | 61.8% | 94.5% | 108% | 98% | 67.8%
3 | CCOC(=O)CCNc1cc(N2CCc3ccccc3CC2)nc(-c2ccccn2)n1 [GSK-J4] (10000 nM) | 42.3% | 41.2% | 12.7% | 33.1% | 20.1% | 20.8% | 30.6% | 45.2% | 30.7% | 44.7% | 45.9% | 56.3% | 61.7% | 22.8% | 10.1% | 49.4% | 57.2% | 12.2% | 59.3% | 76.9% | 68.1% | 40.1% | 88.5% | 2.31% | 81.8% | 79.9% | 89.3% | 57.7% | -18.4% | 80.2% | 49.9% | 87.7% | 88.8% | 53.5% | 100% | 52.1% | -14.7%
4 | Nc1cc(C(F)(F)F)c(-c2cc(N3CCOCC3)nc(N3CCOCC3)n2)cn1 [Buparlisib] (1000 nM) | 53.3% | 94% | 82.9% | 99% | 95.1% | 89.6% | 82.9% | 55.6% | 90.3% | 99.8% | 102% | 70.9% | 88% | 102% | 96.2% | 89.5% | 84% | 90.4% | 91.1% | 97.5% | 95.9% | 165% | 98.9% | 106% | 113% | 95.6% | -21.3% | 80% | 94.7% | 95.4% | 98.7% | 100% | 90% | 91.7% | 96.8% | 107% | 107%
5 | CCn1c(-c2nonc2N)nc2cnc(Oc3cccc(NC(=O)c4ccc(OCCN5CCOCC5)cc4)c3)cc21 (1000 nM) | 94.2% | 97.9% | 83% | 95.6% | 102% | 73.1% | 91.8% | 75.9% | 80.5% | 82.6% | 91.3% | 89.9% | 72.6% | 98.1% | 86.7% | 98.2% | 81.8% | 83.2% | 73.5% | 101% | 95.2% | 111% | 98.7% | 109% | 113% | 95.2% | 104% | 79.5% | 101% | 95% | 107% | 99% | 88.7% | 83.5% | 73.9% | 79.7% | 96.5%
6 | CNC(=O)c1cccc(-c2ccc3c(N4CCOC[C@@H]4C)nc(N4CCOC[C@@H]4C)nc3n2)c1 [AZD2014] (1000 nM) | 33.7% | 36.9% | 43.3% | 39.8% | 36.9% | 34.5% | 67.9% | 46.5% | 57.8% | 59.5% | 98.5% | 40.2% | 32.5% | 51.6% | 35.1% | 56.7% | 24.3% | 28.8% | 43.6% | 61.1% | 97.5% | 132% | 102% | 104% | 104% | 102% | 104% | 104% | 96.9% | 92.1% | 100% | 105% | 82.4% | 46.1% | 70.8% | 92.3% | 102%
